Values after ≈ are worked out from the molar mass of the structure shown.
Legend:
Test in all cases: in vitro antibacterial MIC, agar plate dilution
Assay type in all cases: cell-based
[1] = tested on: Acinetobacter calcoaceticus MOR 84-43; details: MOR8443, 18 hours, 35° C., read-out: MIC
How it was run: (§1)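 MIC, mcg/ml: lowest concentration with no visible growth after 18 h incubation at 35° C. Mueller-Hinton agar dilution plates; ~10^4 CFU inoculum via Steers replicating device.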

[2] = tested on: Enterobacter aerogenes VGH 84-36; details: Klebsiella aerogenes, VGH8436, 18 hours, 35° C., read-out: MIC
How it was run: as §1

[3] = tested on: Enterobacter cloacae K 84-10; details: Enterobacter cloacae, K8410, 18 h, 35° C., read-out: MIC
How it was run: as §1

[4] = tested on: Enterobacter cloacae VGH 84-37; details: Enterobacter cloacae, VGH8437, 18 h, 35° C., read-out: MIC
How it was run: as §1

[5] = tested on: Escherichia coli ATCC 25922; details: Escherichia coli, ATCC25922, 18 h, 35° C., read-out: MIC
How it was run: as §1

[6] = tested on: Escherichia coli CMC 84-11; details: Escherichia coli, CMC8411, 18 h, 35° C., read-out: MIC
How it was run: as §1

[7] = tested on: Escherichia coli CMC 84-16; details: Escherichia coli, CMC8416, 18 h, 35° C., read-out: MIC
How it was run: as §1

Escherichia coli NAR 311 = details: NAR311, 18 hours, 35° C., read-out: MIC
How it was run: as §1

[8] = tested on: Escherichia coli PRNT 311; details: PRNT311, 18 hours, 35° C., read-out: MIC
How it was run: as §1

[9] = tested on: Klebsiella oxytoca MOR 84-28; details: MOR8428, 18 hours, 35° C.
How it was run: as §1

Klebsiella pneumoniae AD = details: Klebsiella pneumoniae, 18 h, 35° C., read-out: MIC
How it was run: as §1

[10] = tested on: Klebsiella pneumoniae MOR 84-4; details: Klebsiella pneumoniae, MOR844, 18 h, 35° C., read-out: MIC
How it was run: as §1

[11] = tested on: Morganella morganii CMC 84-37; details: Morganella morganii, CMC8437, 18 h, 35° C., read-out: MIC
How it was run: as §1

[12] = tested on: Morganella morganii VGH 84-11; details: VGH8411, 18 hours, 35° C., read-out: MIC
How it was run: as §1

[13] = tested on: Proteus rettgeri CMC 84-41; details: Providencia rettgeri, CMC8441, 18 h, 35° C., read-out: MIC
How it was run: as §1

[14] = tested on: Pseudomonas aeruginosa LL-1244; details: Pseudomonas aeruginosa, LL1244, 18 h, 35° C., read-out: MIC
How it was run: as §1

[15] = tested on: Pseudomonas aeruginosa VGH 84-4; details: Pseudomonas aeruginosa, VGH844, 18 h, 35° C., read-out: MIC
How it was run: as §1

[16] = tested on: Serratia marcescens F 0-35; details: Serratia marcescens, F035, 18 h, 35° C., read-out: MIC
How it was run: as §1

[17] = tested on: Serratia marcescens K 84-18; details: Serratia marcescens, K8418, 18 h, 35° C., read-out: MIC
How it was run: as §1

[18] = tested on: Staphylococcus Spp saprophiticus VGH 84-50; details: 18 hours, 35° C., read-out: MIC
How it was run: as §1

[19] = tested on: Staphylococcus aureus ATCC 25913; details: ATCC25913, 18 hours, 35° C.
How it was run: as §1

[20] = tested on: Staphylococcus aureus ATTC 29213; details: Staphylococcus aureus, ATTC29213, 18 h, 35° C., read-out: MIC
How it was run: as §1

[21] = tested on: Staphylococcus aureus CMC 83-127; details: Staphylococcus aureus, CMC83127, 18 h, 35° C., read-out: MIC
How it was run: as §1

[22] = tested on: Staphylococcus aureus CMC 83-128; details: CMC83128, 18 hours, 35° C., read-out: MIC
How it was run: as §1

[23] = tested on: Staphylococcus aureus Smith; details: Staphylococcus aureus, 18 h, 35° C., read-out: MIC
How it was run: as §1

[24] = tested on: Staphylococcus aureus VGH 84-45; details: Staphylococcus aureus, VGH8445, 18 h, 35° C., read-out: MIC
How it was run: as §1

[25] = tested on: Staphylococcus aureus VGH 84-46; details: Staphylococcus aureus, VGH8446, 18 h, 35° C., read-out: MIC
How it was run: as §1

[26] = tested on: Staphylococcus epidermidis CMC 83-135; details: CMC83135, 18 hours, 35° C., read-out: MIC
How it was run: as §1

[27] = tested on: Staphylococcus epidermidis IO 83-58; details: IO8358, 18 hours, 35° C., read-out: MIC
How it was run: as §1

[28] = tested on: Staphylococcus epidermidis VGH 84-40; details: VGH8440, 18 hours, 35° C., read-out: MIC
How it was run: as §1

[29] = tested on: Streptococcus faecalis ATTC 29212; details: Enterococcus faecalis, ATTC29212, 18 hours, 35° C., read-out: MIC
How it was run: as §1

[30] = tested on: Streptococcus faecalis VGH 84-65; details: Enterococcus faecalis, VGH8465, 18 h, 35° C., read-out: MIC
How it was run: as §1

Row | MIC [1] [µg/mL] | MIC [2] [µg/mL] | MIC [3] [µg/mL] | MIC [4] [µg/mL] | MIC [5] [µg/mL] | MIC [6] [µg/mL] | MIC [7] [µg/mL] | MIC (Escherichia coli NAR 311) [µg/mL] | MIC [8] [µg/mL] | MIC [9] [µg/mL] | MIC (Klebsiella pneumoniae AD) [µg/mL] | MIC [10] [µg/mL] | MIC [11] [µg/mL] | MIC [12] [µg/mL] | MIC [13] [µg/mL] | MIC [14] [µg/mL] | MIC [15] [µg/mL] | MIC [16] [µg/mL] | MIC [17] [µg/mL] | MIC [18] [µg/mL] | Compound | further results
1 | 2 (≈ 5.19 µM) | 0.5 (≈ 1.3 µM) | 0.25 (≈ 0.649 µM) | ≤ 0.12 | ≤ 0.12 | ≤ 0.12 | ≤ 0.12 | 4 (≈ 10.4 µM) | 0.5 (≈ 1.3 µM) | 0.5 (≈ 1.3 µM) | ≤ 0.12 | 0.25 (≈ 0.649 µM) | 0.25 (≈ 0.649 µM) | 0.25 (≈ 0.649 µM) | 0.25 (≈ 0.649 µM) | 32 (≈ 83 µM) | 4 (≈ 10.4 µM) | 1 (≈ 2.59 µM) | 1 (≈ 2.59 µM) | 1 (≈ 2.59 µM) | CCn1cc(C(=O)O)c(=O)c2cc(F)c(N3CCNC(c4ccco4)C3)cc21 (stereo not drawn) [Example 28, 1-Ethyl-6-fluoro-7-[3-(2-furanyl)-1-piperazinyl]-1,4-dihydro-4-oxo-3-quinolinecarboxylic acid] | MIC [19]: ≤ 0.12 µg/mL; MIC [20]: 0.25 µg/mL (≈ 0.649 µM); MIC [21]: ≤ 0.06 µg/mL; MIC [22]: ≤ 0.12 µg/mL; MIC [23]: ≤ 0.12 µg/mL; MIC [24]: ≤ 0.06 µg/mL; MIC [25]: ≤ 0.12 µg/mL; MIC [26]: ≤ 0.12 µg/mL; MIC [27]: 0.25 µg/mL (≈ 0.649 µM); MIC [28]: ≤ 0.12 µg/mL; MIC [29]: 2 µg/mL (≈ 5.19 µM); MIC [30]: 2 µg/mL (≈ 5.19 µM)
2 | 4 (≈ 9.96 µM) | 0.5 (≈ 1.25 µM) | 0.5 (≈ 1.25 µM) | 0.12 (≈ 0.299 µM) | 0.12 (≈ 0.299 µM) | 0.12 (≈ 0.299 µM) | 0.25 (≈ 0.623 µM) | 4 (≈ 9.96 µM) | 0.5 (≈ 1.25 µM) | 0.5 (≈ 1.25 µM) | 0.12 (≈ 0.299 µM) | 0.25 (≈ 0.623 µM) | 0.25 (≈ 0.623 µM) | 0.12 (≈ 0.299 µM) | 0.25 (≈ 0.623 µM) | 32 (≈ 79.7 µM) | 4 (≈ 9.96 µM) | 1 (≈ 2.49 µM) | 0.5 (≈ 1.25 µM) | 2 (≈ 4.98 µM) | CCn1cc(C(=O)O)c(=O)c2cc(F)c(N3CCNC(c4ccsc4)C3)cc21 (stereo not drawn) [Example 30] | MIC [19]: 0.25 µg/mL (≈ 0.623 µM); MIC [20]: 0.5 µg/mL (≈ 1.25 µM); MIC [21]: 0.12 µg/mL (≈ 0.299 µM); MIC [22]: 0.5 µg/mL (≈ 1.25 µM); MIC [23]: 0.12 µg/mL (≈ 0.299 µM); MIC [24]: 0.25 µg/mL (≈ 0.623 µM); MIC [25]: 0.25 µg/mL (≈ 0.623 µM); MIC [26]: 0.25 µg/mL (≈ 0.623 µM); MIC [27]: 0.5 µg/mL (≈ 1.25 µM); MIC [28]: 0.25 µg/mL (≈ 0.623 µM); MIC [29]: 4 µg/mL (≈ 9.96 µM); MIC [30]: 4 µg/mL (≈ 9.96 µM)
3 | > 128 | 16 | 8 | 32 | 16 | 8 | 4 | > 128 | 16 | > 128 | 64 | 32 | 32 | 32 | 32 | > 128 | > 128 | 64 | 128 | 4 | CCn1cc(C(=O)O)c(=O)c2cc(F)c(N3CCNC(CNC)C3)cc21.Cl.Cl (stereo not drawn) [Example 53, 1-Ethyl-6-fluoro-1,4-dihydro-7-[3-[(methylamino)methyl]-1-piperazinyl]-4-oxo-3-quinolinecarboxylic acid, dihydrochloride] | MIC [20]: 16 µg/mL; MIC [21]: 1 µg/mL; MIC [22]: 2 µg/mL; MIC [23]: 1 µg/mL; MIC [24]: 16 µg/mL; MIC [25]: 8 µg/mL; MIC [26]: 2 µg/mL; MIC [27]: 4 µg/mL; MIC [28]: 4 µg/mL; MIC [29]: 32 µg/mL; MIC [30]: 32 µg/mL
4 | 1 (≈ 2.71 µM) | 0.5 (≈ 1.35 µM) | 0.12 (≈ 0.325 µM) | 0.12 (≈ 0.325 µM) | 0.12 (≈ 0.325 µM) | 0.12 (≈ 0.325 µM) | 0.06 (≈ 0.162 µM) | 4 (≈ 10.8 µM) | 0.12 (≈ 0.325 µM) | 1 (≈ 2.71 µM) | 0.25 (≈ 0.677 µM) | 0.5 (≈ 1.35 µM) | 0.12 (≈ 0.325 µM) | 0.12 (≈ 0.325 µM) | 0.5 (≈ 1.35 µM) | 16 (≈ 43.3 µM) | 4 (≈ 10.8 µM) | 0.5 (≈ 1.35 µM) | 0.5 (≈ 1.35 µM) | 8 (≈ 21.7 µM) | CCn1cc(C(=O)O)c(=O)c2c(F)c(F)c(N3CCN(C)CC3)c(F)c21 [Example 85, 1-Ethyl-5,6,8-trifluoro-1,4-dihydro-7-(4-methyl-1-piperazinyl) -4-oxo-3-quinolinecarboxylic acid] | MIC [20]: 2 µg/mL (≈ 5.42 µM); MIC [21]: 0.5 µg/mL (≈ 1.35 µM); MIC [22]: 2 µg/mL (≈ 5.42 µM); MIC [23]: 1 µg/mL (≈ 2.71 µM); MIC [24]: 1 µg/mL (≈ 2.71 µM); MIC [25]: 1 µg/mL (≈ 2.71 µM); MIC [26]: 2 µg/mL (≈ 5.42 µM); MIC [27]: 1 µg/mL (≈ 2.71 µM); MIC [28]: 1 µg/mL (≈ 2.71 µM); MIC [29]: 8 µg/mL (≈ 21.7 µM); MIC [30]: 16 µg/mL (≈ 43.3 µM)

Source: patent publication US5210193A, “Piperazine derivatives” (American Cyanamid Company, priority 1990, dated 1993)
